According to US12281304B2, “Compositions and methods for treating and preventing muscular disorders and dystrophies, steroid side effects, and inflammation” (Children's National Medical Center, priority 2018, dated 2025):

How the values were obtained:
miRNA sequences = conditions: known mechanism listed in Table 6; compounds will be tested; cited from earlier work
Toll-like receptor 7 = molecular target: T1, Toll-like receptor 7 (Mus musculus, UniProt P58681); test: Secreted TNF-α (ALPHA-LISA) in RAW 264.7 macrophages treated with miRNAs (TLR7 activation); assay type: cell-based, murine; conditions: RAW 264.7 cells, 5 ug RNA, 6, 24 and 48 h
T1 construct: endogenous in cells; host or cells: RAW 264.7 murine macrophage cells
T1 sequence (P58681 27-1050): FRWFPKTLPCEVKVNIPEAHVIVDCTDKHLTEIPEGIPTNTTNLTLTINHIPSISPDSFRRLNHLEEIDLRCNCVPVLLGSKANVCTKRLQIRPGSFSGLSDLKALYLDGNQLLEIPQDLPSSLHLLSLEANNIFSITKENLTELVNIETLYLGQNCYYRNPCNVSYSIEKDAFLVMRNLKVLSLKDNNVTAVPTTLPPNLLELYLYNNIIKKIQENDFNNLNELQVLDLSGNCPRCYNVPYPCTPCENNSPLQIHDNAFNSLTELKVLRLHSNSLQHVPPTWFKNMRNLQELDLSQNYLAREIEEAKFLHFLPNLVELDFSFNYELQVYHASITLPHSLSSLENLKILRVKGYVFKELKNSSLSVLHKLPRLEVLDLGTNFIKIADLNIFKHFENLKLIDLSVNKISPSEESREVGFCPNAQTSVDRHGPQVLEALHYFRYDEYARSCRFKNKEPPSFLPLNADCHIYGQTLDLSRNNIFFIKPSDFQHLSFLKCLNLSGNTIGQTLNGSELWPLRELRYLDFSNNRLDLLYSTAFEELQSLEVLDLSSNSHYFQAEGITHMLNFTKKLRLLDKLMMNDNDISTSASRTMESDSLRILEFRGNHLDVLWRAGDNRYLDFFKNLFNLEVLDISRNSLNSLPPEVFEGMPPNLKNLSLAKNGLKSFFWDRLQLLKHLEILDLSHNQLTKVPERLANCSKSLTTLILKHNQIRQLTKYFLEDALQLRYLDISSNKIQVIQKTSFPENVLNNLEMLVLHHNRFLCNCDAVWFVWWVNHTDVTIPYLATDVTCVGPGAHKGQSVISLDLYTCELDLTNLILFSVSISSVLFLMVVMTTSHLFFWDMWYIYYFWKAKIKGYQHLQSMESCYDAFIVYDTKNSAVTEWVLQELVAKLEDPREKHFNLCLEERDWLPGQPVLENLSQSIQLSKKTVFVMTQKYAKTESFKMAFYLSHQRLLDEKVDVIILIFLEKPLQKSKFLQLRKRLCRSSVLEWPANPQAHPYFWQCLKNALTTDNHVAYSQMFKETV
Procedure: FIG. 11A-11C depict how miR-146a and miR-142-3p bind to and activate the inflammatory Toll-like receptor 7. 11A) RAW 264.7 murine macrophage cells were treated the indicated treatments for 6, 24 and 48 h: 1) negative CTRL (−)=no treatment; 2) Gardiquimod (3 ug/mL)=+control for TLR7 activation; 3) miR-146a (5 ug) sequence: […] (SEQ ID NO:70), 4) miR-142-3p (5 ug) […] (SEQ ID NO:71); 5) miR-146amut (5 ug, sequence: […] (SEQ ID NO:72)); 6) miR-142-3pmut (5 ug, sequence: […] (SEQ ID NO:73)). After the indicated timepoints, media was collected and an ALPHA-LISA was performed to measure the amount of secreted TNF-α. […] B) RAW 264.7 murine macrophage cells were treated with gardiquimod or the indicated microRNAs for 48 h, where peak activation was observed. Secreted TNF-α was assessed as in A) using an ALPHA-LISA. C) HEK 293 cells were transfected with a plasmid encoding TLR7-YFP (green) and either a Cy5-miR-146a or Cy5-miR-142-3p (red). 48 h post-transfection cells were fixed and confocal microscopy was performed using an Olympus FV-1000 at 100× magnification.

TLR7 = molecular target: T2, TLR7 (Mus musculus, UniProt P58681); test: Competition of TLR7 activation by uridine-deficient mutant miRNA in RAW 264.7 cells (secreted TNF-α); assay type: cell-based, murine; conditions: constant dose of parent miRNA with increasing doses of mutant, 48 hours
T2 construct: endogenous in cells; host or cells: RAW 264.7 murine macrophage cells
T2 sequence (P58681 27-1050): T1 sequence (P58681 27-1050)
Procedure: A) HEK 293 cells were transfected with a plasmid encoding TLR7-YFP (green) and either a Cy5-miR-146a mutant microRNA or Cy5-miR-142-3p mutant microRNA (red) […] post-transfection cells were fixed and confocal microscopy was performed using an Olympus FV-1000 at 100× magnification. […] B) RAW 264.7 murine macrophage cells were treated with a constant dose of miR-146a with increasing doses of a uridine-deficient miR-146a mutant. 48 hours later TLR7 activation was assessed via secreted TNF-α. […] C) RAW 264.7 murine macrophage cells were treated with a constant dose of […] with increasing doses of a uridine-deficient miR-142-3pmutant. 48 hours later TLR7 activation was assessed via secreted TNF-α.

Compound	Activity (miRNA sequences)	secretion of TNF-α (TLR7 activation) (Toll-like receptor 7)	competition of TLR7 activation by the parent miRNA (TLR7)
CN(C)NC(=O)CCC(=O)O [Daminozide]	KDM2/KDM7 JmjC subfamily of histone demethylase inhibitor		
COc1cc2nc(N3CCCN(C)CC3)nc(NC3CCN(Cc4ccccc4)CC3)c2cc1OC [BIX-01294]	G9a histone methyltransferase/ GLP histone methyltransferase (G9a/GLP) inhibitor		
O=C(/C=C/c1cccnc1)NCCCCC1CCN(C(=O)c2ccccc2)CC1 [FK-866 HCI]	Nicotinamide phosphoribosyl- transferase (Nampt) inhibitor		
O=C(Nc1cccc(Br)c1)c1cccc(S(=O)(=O)N2CCCCCC2)c1 [AK-7]	NAD-dependent deacetylase sirtuin 2 (SIRT2) inhibitor		
miR-146amut: uridine-deficient mutant microRNA, sequence agagaacagaaaaccacgggaa (SEQ ID NO:72) (AGAGAACAGAAAACCACGGGAA; listed as DNA, chemistry not given here; listed as Homo sapiens)		prevents activation	can compete away the activation of TLR7 by miR-146a
Cc1ccc(-n2sc3ccccc3c2=O)cc1 [PBIT]	Jumanji AT-rich interactive domain 1 family of lysine demethylases (JARID1) inhibitor		
COC(=O)CNC(=O)C(=O)OC [DMOG]	Prolyl hydroxylase domain- containing protein (PHD/JMJD2A) inhibitor		
N[C@@H]1C[C@H]1c1ccccc1 [Tranyl- cypromine hemisulfate]	Lysine-specific demethylase 1 (LSD1/BHC110) inhibitor		
miR-142-3p: microRNA, sequence uguaguguuuccuacuuuaugga (SEQ ID NO:71) (UGUAGUGUUUCCUACUUUAUGGA; listed as RNA, chemistry not given here; listed as Homo sapiens)		activate secretion of TNF-α	
O=C(O)CCNc1cc(N2CCc3ccccc3CC2)nc(-c2ccccn2)n1 [GSK-J1 (cell impermeable)]	Jumonji H3K27 histone demethylase (JMJD3/UTX) inhibitor		
miR-142-3pmut: uridine-deficient mutant microRNA, sequence agaagagaaaccaacaaaaugga (SEQ ID NO:73) (AGAAGAGAAACCAACAAAAUGGA; listed as RNA, chemistry not given here; listed as Homo sapiens)		prevents activation	can compete away TLR7 activation
